Source: patent publication US11596591B2, “Manufacturing method for cosmetic composition of fucoidan and cosmetic composition comprising low molecular weight fucoidan using the same” (priority 2021, dated 2023)

Tested on: mushroom tyrosinase
Test: in-vitro tyrosinase inhibition assay (substrate L-tyrosine)
Assay type: biochemical
Settings: 200 μM, positive control
Text: An in-vitro tyrosinase inhibition assay was used to determine whether the whitening ingredients were directly affecting the regulation of the tyrosinase activity (using tyrosine as a substrate). The ingredients with a whitening effect mainly have a mechanism of action that inhibits some processes in the melanin biosynthetic pathway in vivo, which is the initial process in which tyrosinase is involved in the most important process in the synthetic pathway. Most of the whitening ingredients inhibit the activity of tyrosinase and reduce the production of melanin in the skin, resulting in offering a skin whitening effect. […] (1) Test method: For an in-vitro tyrosinase inhibition test of the test substance, mozuku-derived fucoidan extract, the tyrosinase inhibitory ability was measured using an in-vitro tyrosinase inhibition assay. […] The tyrosinase inhibitory effect of the test substance was evaluated by measuring the absorbance of DOPAchrome produced from the substrate L-tyrosine by the enzymatic reaction of tyrosinase. […] A microplate reader system (SpectraMax® i3x Multi Mode Detection Platform Molecular Devices, USA) was used to measure the absorbance at 475 nm. […] As determined by the Student's t test, P<0.05 was considered statistically significant. The in-vitro tyrosinase inhibition activity against the substrate L-tyrosine was calculated according to the following equation: […] […]

tyrosinase inhibition activity against L-tyrosine with respect to the negative control: 50.47±0.95%
Structure (SMILES): OC[C@H]1O[C@@H](Oc2ccc(O)cc2)[C@H](O)[C@@H](O)[C@@H]1O [arbutin]
